The record followed here is article PMC10328120 (Nature, 2022).

Like-named read-outs stand apart in the source and are kept apart here.

The target in series [1] is T1, μOR (Homo sapiens, UniProt P35372). In words: cell-based. Type of series: cell-based.
In series [2] the target is T1, μOR. The series can be described thus: cell-based. It is filed as cell-based. This is another data set of the same source.
In series [3] the target is T1, μOR. In words: cell-based. The conditions noted are these: for Emax: read-out: β-arr1 Emax % ± SEM. Type of series: cell-based.
Series [4] has as its system C57BL/6J mice. The conditions noted are these: mouse, in vivo.
For series [5], the system named is mouse. Particulars: in vivo.
Series [6] relates to mouse. Particulars: in vivo. The source holds these as a separate data set.
The test system of series [7] is C57BL/6J mice. The conditions noted are these: mouse, in vivo. The source holds these as a separate data set.
Series [8] deals with mouse. Particulars: in vivo. This is another data set of the same source.
Series [9] deals with C57BL/6J mice. Particulars: mouse, in vivo. The source holds these as a separate data set.

T1 sequence (P35372 whole entry): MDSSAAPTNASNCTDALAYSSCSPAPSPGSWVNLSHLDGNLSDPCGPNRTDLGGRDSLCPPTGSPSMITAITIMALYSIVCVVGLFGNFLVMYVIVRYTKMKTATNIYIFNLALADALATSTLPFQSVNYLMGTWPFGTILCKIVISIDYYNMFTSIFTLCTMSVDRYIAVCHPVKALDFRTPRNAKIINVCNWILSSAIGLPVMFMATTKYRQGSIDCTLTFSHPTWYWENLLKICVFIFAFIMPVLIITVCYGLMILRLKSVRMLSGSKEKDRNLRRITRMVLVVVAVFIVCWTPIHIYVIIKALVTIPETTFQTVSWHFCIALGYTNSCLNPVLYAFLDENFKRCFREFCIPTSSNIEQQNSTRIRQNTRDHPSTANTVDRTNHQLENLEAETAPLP

On to `COc1ccsc1CNCC[C@@]1(c2ccccn2)CCOC2(CCCC2)C1` [TRV130], for which the Emax amounted to 67 ± 5.3% on μOR [1] (read-out: G0a Emax % ± SEM); 76 ± 4.4% at μOR [1] (read-out: G0b Emax % ± SEM); 58 ± 3.8% on μOR [1] (read-out: Gi1 Emax % ± SEM); 58 ± 4.2% at μOR [1] (read-out: Gi2 Emax % ± SEM); 45 ± 3.3% at μOR [1] (read-out: Gi3 Emax % ± SEM); 98 ± 2.2% on μOR [1] (read-out: Gz Emax % ± SEM). Also, the “β-arr2 Emax % ± SEM” value at μOR [2] is 26 ± 5.9%.
In the case of `C[C@@H](NC(=O)[C@@H](N)Cc1ccc(O)cc1)C(=O)NCC(=O)N(C)[C@@H](Cc1ccccc1)C(=O)NCCO` [DAMGO], on μOR [2], the “β-arrestin-2 recruitment, maximum value” was 100%; the “β-arrestin-2 recruitment, median value” worked out at 100%; the “β-arrestin-2 recruitment, minimum value” is 100%. At μOR [3], the “β-arrestin-1 recruitment, maximum value” came out at 100%; the “β-arrestin-1 recruitment, median value” was found to be 100%; the “β-arrestin-1 recruitment, minimum value” came to 100%.
On to `CC(C)=CCN1CCC2(C)c3cc(O)ccc3CC1C2C` (stereo not drawn) [Pentazocine], for which, at μOR [1], the “Gz Emax % ± SEM” value is on record as “full agonist”. In addition, the maximal response (Emax) on μOR [1] (read-out: G0a Emax % ± SEM) came out at 89 ± 4%; on μOR [1] (read-out: G0b Emax % ± SEM), 89 ± 3.2%; at μOR [1] (read-out: Gi1 Emax % ± SEM), 75 ± 1.8%; at μOR [1] (read-out: Gi2 Emax % ± SEM), 78 ± 3.8%; on μOR [1] (read-out: Gi3 Emax % ± SEM), 73 ± 2.3%; on μOR [1] (read-out: Gz Emax % ± SEM) it was 103 ± 1.5%. The Emax on μOR [2] (read-out: β-arr2 Emax % ± SEM) turned out to be 13 ± 4.04%; on μOR [3] it was 7 ± 4.51%.
As for `COc1ccc2c3c1O[C@H]1C(=O)CC[C@@]4(O)[C@@H](C2)N(C)CC[C@]314` [Oxycodone], the “Gz Emax % ± SEM” value at μOR [1] is reported as “full agonist”. Further, the maximal response (Emax) amounted to 102 ± 5.2% on μOR [1] (read-out: G0a Emax % ± SEM); 110 ± 3.4% at μOR [1] (read-out: G0b Emax % ± SEM); 83 ± 5.7% on μOR [1] (read-out: Gi2 Emax % ± SEM); 75 ± 3.8% on μOR [1] (read-out: Gi3 Emax % ± SEM); 102 ± 4.9% on μOR [1] (read-out: Gz Emax % ± SEM); 81 ± 7.9% on μOR [3]. The “β-arr2 Emax % ± SEM” value on μOR [2] is 80 ± 3.9%.
For the compound `CN1CC[C@]23c4c5ccc(O)c4O[C@H]2[C@@H](O)C=C[C@H]3[C@H]1C5` [Morphine], the Breath rates entry in the series on C57BL/6J mice [4] is “decrease”. In addition, in the series on mouse [5], the “Post-conditioning (post-CPP), maximum” value turned out to be 819 s; the “Post-conditioning (post-CPP), median” value is 154 s; the “Post-conditioning (post-CPP), minimum” value is -299 s; the “Pre-conditioning (pre-CPP) difference in time on drug-paired side, minimum” value was -542 s. In addition, in the series on mouse [5], the “Pre-conditioning (pre-CPP), maximum” value came out at 413 s and the “Pre-conditioning (pre-CPP), median” value was -23 s. Further, in the series with mouse [6], the “Antinociception in writhing assay” value is recorded as “significant antinociception compared with vehicle or saline”; the “Number of writhes over 15 min, maximum” value was 32; the “Number of writhes over 15 min, median” value came out at 0; the “Number of writhes over 15 min, minimum” value was 0. In the series on C57BL/6J mice [7], the “ED50 95% confidence interval” value is 4.4 to 8.43 nmol and the “Median antinociceptive dose (ED50)” value stood at 6.6 nmol. Besides, in the series on mouse [8], the “Antinociception in formalin assay” value is recorded as “significant antinociception compared with vehicle or saline”; the “Formalin assay response, maximum” value came to 95 s; the “Formalin assay response, median” value came out at 7 s; the “Formalin assay response, minimum” value is listed as 1 s. Also, the “Ambulations (locomotor effect)” value with C57BL/6J mice [9] is recorded as “hyperlocomotion”.
With `CC[C@@H]1CN2CC[C@@]3(O)C(=Nc4cccc(OC)c43)[C@@H]2C[C@@H]1/C(=C\OC)C(=O)OC` [7-OH, 7-hydroxymitragynine], the Respiratory effect result in the series with C57BL/6J mice [4] (sc) is recorded as “respiratory depression similar to that caused by morphine”. Besides, on μOR [1], the “G0a Emax % ± SEM” value stood at 65 ± 4.9%, the “G0b Emax % ± SEM” value is 56 ± 3.5%, the “Gi1 Emax % ± SEM” value worked out at 31 ± 4.9% and the “Gi2 Emax % ± SEM” value was 53 ± 5.1%. Moreover, on μOR [1], the “Gz Emax % ± SEM” value was found to be 73 ± 2.8%. Also, on μOR [2], the “β-arrestin-2 recruitment, maximum value” is reported as 25.2%; the “β-arrestin-2 recruitment, median value” is −2.4%; the “β-arrestin-2 recruitment, minimum value” was −13.1%. Further, on μOR [3], the “β-arrestin-1 recruitment, maximum value” is 0.3%; the “β-arrestin-1 recruitment, median value” is given as −1.4%; the “β-arrestin-1 recruitment, minimum value” is −8.0%.
